Assay [1] has as its target T1, PregOBP56a (Phormia regina odorant-binding protein 56a) (Phormia regina, UniProt L8B8J6).
T1 construct: recombinant mature PregOBP56a (117 amino acid residues)
T1 sequence (L8B8J6 19-135): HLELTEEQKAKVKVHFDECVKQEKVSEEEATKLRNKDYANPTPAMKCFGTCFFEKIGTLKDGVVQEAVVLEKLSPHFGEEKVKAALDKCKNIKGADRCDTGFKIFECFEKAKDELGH
As to the kind of experiment: fluorescence competitive binding assay (1-NPN displacement), pH […].

The target of assay [2] is T1, PregOBP56a (Phormia regina odorant-binding protein 56a). Nature of the assay: direct fluorescence titration of the reporter probe, pH […].

The term Kd denotes the concentration at which binding is half-saturated. For `CCCCCCCC/C=C\CCCCCCCC(=O)O` [oleic acid], binding in assay [1] was characterised by a dissociation constant (Kd) of 710 nM.
For the compound `CCCCCCCCCCCCCCCC(=O)O` [palmitic acid], the Kd in assay [1] worked out at 280 nM.
In turn, `CCCCC/C=C\C/C=C\CCCCCCCC(=O)O` [linoleic acid] displayed a Kd in assay [1] of 510 nM. Compared with the last compound, the Kd is about 1.8-fold higher.
In assay [1], `CCCCCCCCCCCCCCCCCC(=O)O` [stearic acid] came in with a Kd of 350 nM. This Kd and that of the compound before are within 1.5-fold of each other.
Turning to `c1ccc(Nc2cccc3ccccc23)cc1` [1-NPN, N-phenyl-1-naphthylamine], the Kd in assay [2] stood at 11400 nM. That is a double-digit micromolar value.
